In US20240238246A1, “METHODS FOR PREVENTING OR SLOWING THE PROGRESSION OF COGNITIVE DECLINE OR IMPAIRMENT IN SUBJECTS” (AGENEBIO, INC., priority 2023, published 2024):

Experiments:
[1] = system: subjects with MCI due to Alzheimer's disease; test: Phase IIb placebo-controlled 78-week study, Clinical Dementia Rating-Sum of Boxes (CDR-SB); assay type: in vivo, human
Protocol: (§1) This example describes a phase IIb multicenter, randomized, double-blind, placebo-controlled study evaluating the efficacy and safety of a low-dose levetiracetam, 220 mg, extended-release tablet on slowing progression of MCI due to Alzheimer's disease (prodromal Alzheimer's disease), the results being evaluated using the well-recognized and accepted Clinical Dementia Rating-Sum of Boxes (CDR-SB) scores.
(§2) Subjects for this study were between 55 and 85 years old (inclusive) in good general health, willing and able to consent and to participate for the duration of the study, having an eighth-grade education or good work history sufficient to exclude mental retardation, having visual and auditory acuity adequate for neuropsychological testing, and having proficient fluency of the native local language to participate in all the neuropsychological test assessments. The clinical assessments of 63 participants were used for the analyses.
Blood samples were taken from each subject to determine APOE4 carrier status. Genomic DNA was prepared from the blood samples according to standard procedures. Quality of the genomic DNA samples were quantified using Optical Density and DNA purity was calculated. Using extracted genomic DNA as a template, locus specific DNA fragments were amplified by polymerase chain reaction (PCR). Purified PCR products were used as templates for sequencing reactions. According to the chain terminating methodology of Sanger et al (Sanger F, Nicklen S, Coulson A R. DNA sequencing with chain-terminating inhibitors. Proc Natl Acad Sci USA. 1977 December; 74(12):5463-7), analysis of DNA sequence was based on the termination of a growing DNA strand due to incorporation of a dye labeled ddNTP by the DNA polymerase. The resulting dye-labeled product was detected using an automated sequencing platform. Data was analyzed using the software SEQPATIENT from JSI-medical Systems®.
(§3) The study included up to a 5-week screening period consisting of 3 visits and a 78-week treatment period consisting of 10 visits (1 baseline visit, 3 telephone call visits, and 6 clinic visits). The primary endpoint of the study was the analysis of the change in CDR-SB score from baseline to 78 weeks. Secondary endpoints included the analysis of the change in Functional Activities Questionnaire (FAQ) score from baseline to 78 weeks. Subjects received a low-dose levetiracetam, 220 mg, extended-release tablet or placebo in the morning in identically appearing extended release, one unit oral dosage forms.
CDR-SB testing was performed using standard methods. Briefly, subjects were tested using the following six categories or “boxes”: Memory, Orientation, Judgment and Problem Solving, Community Affairs, Home and Hobbies, and Personal Care. CDR-SB scores were calculated by adding the box scores. The total score ranges from 0 to 18 with a higher scores indicating more impairment). Absolute values and changes from baseline in CDR-SB were summarized using descriptive statistics and presented by APOE4 non-carrier status. Table 3 summarizes the statistical analysis wherein each cell contains a point estimate followed by a 95% Confidence Interval (CI).

[2] = system: subjects with MCI due to Alzheimer's disease; test: Phase IIb placebo-controlled 78-week study, Functional Activities Questionnaire (FAQ) score; assay type: in vivo, human
Protocol: as §1, §2, §3
FAQ scores were obtained to measure the functional ability of individuals over time. Briefly, FAQ measures instrumental activities of daily life, such as preparing meals and balancing a check book as these functional changes are found earlier in the dementia process compared to more basic activities. The Questionnaire comprises 10 questions which are answered using a 0-3 scoring system for each question with 0 being normal and 3 being dependent on someone else to complete the task. […]

[3] = system: entorhinal cortex (ERC) and Brodmann area 35 (BA35) volume in APOE-4 non-carriers; test: Volumetric MRI of medial temporal lobe subregions (ASHS-T1 segmentation) in the phase IIb study; assay type: in vivo, human; settings: APOE-4 non-carriers (n=26), baseline to week 78
Excerpt: Brain regions of interest were selected prior to the trial apriori based on the location of post-mortem tau accumulation in the early stage of AD (Braak et al., Acta Neuropathologica, 112(4): 389-404 (2006); Braak & Braak, Acta Neuropathologica, 80(5): 479-486 (1990)) and robust atrophy in entorhinal cortex volume in the AD. For this purpose, the Automated Segmentation of Hippocampal Subfields (ASHS) software (Xie et al., Hum Brain Mapp. 40:3431-3451 (2019)) was used. Regions provided by this software include the left and right entorhinal cortex (ERC), Brodmann area 35 (BA35), which largely overlaps with TEC (Braak et al., Acta Neuropathologica, 112(4): 389-404 (2006); Braak & Braak, Acta Neuropathologica, 80(5): 479-486 (1990))) and includes a portion of the perirhinal cortex and BA36, which predominantly encompasses the perirhinal cortex (Xie et al., 2019). High-resolution T1-weighted MRI images of the subjects' brain were collected at baseline and 78 weeks using an MRI scanner. Automatic segmentation was performed using the T1-weighted MRI images using the ASHS-T1 open-source software and see, also Xie et al., Hum Brain Mapp. 40:3431-3451 (2019). […] Volumetric and thickness measurements of the ERC and BA35 were extracted for each subject. […]

[4] = cited from earlier work
[5] = APOE-4 non-carrier subgroup (n=26)

CC[C@@H](C(N)=O)N1CCCC1=O [levetiracetam, (2S)-2-(2-oxopyrrolidin-1-yl)butanamide]
CDR-SB Treatment Effect (Difference) versus placebo (point estimate, 95% CI) ([1]; APOE4 non-carriers (n = 63), 78 weeks): −0.56 (CI: −1.90, 0.47) | CDR-SB change score (point estimate, 95% CI) ([1]; APOE4 non-carriers (n = 63), baseline to 78 weeks, 220 mg extended-release tablet): 0.96 (CI: 0.08, 2.01) | Mean CDR-SB change score at Week 78 ([1]; APOE-4 carrier subgroup (n=54)): 0.95 | Estimated average treatment effect on CDR-SB change score ([1]; APOE-4 carrier subgroup, Week 78, versus placebo): −0.10 | Mean CDR-SB change from baseline at Week 78 [1, 5]: 0.68 | Estimated average treatment effect on CDR-SB change score ([1]; APOE-4 non-carrier subgroup, Week 78, versus placebo): −0.45 | Mean CDR-SB change score at Week 78 ([1]; entire study population): 1.12 | Estimated average treatment effect on CDR-SB change score ([1]; entire study population, Week 78, versus placebo (p=0.71)): −0.10 | Mean FAQ total score change from baseline to week 78 ([2]; APOE-4 carrier subgroup (n=54)): 5 | Mean FAQ total score change from baseline to week 78 [2, 5]: 1.8 | Estimated mean FAQ score from baseline at 78 weeks (95% CI) ([2]; entire study population): 3.82 (95% CI: 2.10, 5.17) | Left ERC mean volume change ([3]; p=0.048 vs placebo): −1.878% | Right BA35 mean volume change ([3]; p=0.094 vs placebo): −0.789% | Time of peak plasma concentrations ([4]; following oral administration): about 1 hour | Plasma half-life ([4]; in vivo): approximately 7±1 hour | Time to achieve steady state ([4]; multiple twice-daily dosing): 2 days | Absorption after oral administration ([4]; oral administration): rapidly and almost completely absorbed | Effect of food on bioavailability ([4]; oral administration): not affected by food
